Data taken from ChEMBL document CHEMBL1201862, “PubChem BioAssay data set” (2004).
Active and inactive are the calls of the source.

Experiments:
[1] = cells
[2] = viability of uninfected HEp-2 cells – cell-based, HTS, cytotoxicity control for RSV inhibitor project, dose response (AID 2410); format: functional; conditions: human respiratory syncytial virus
[3] = blockers of bursicon-stimulated LGR2 cAMP reporter – cell-based, HEK293, CRE-luciferase reporter, cherry pick, set 2, dose response (AID 743343); format: functional;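 also: transfected cells were stimulated with diluted bursicon conditioned medium after compound addition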
[4] = viability loss in HEK293 cells – cell-based, plate reader, cherry-picked samples, cytotoxicity control, dose response (AID 743446); format: functional
[5] = Luminescence-based counterscreen assay for KLF5 inhibitors: dose response cell-based high throughput screening assay to identify cytotoxic compounds using the IEC-6 intestinal epithelial cell line. [Related pubchem assays: 1700 (Primary screen.), 1834 (Confirmation screen.), 1858 (Summary AID.), 1905 (Counterscreen.)]; format: functional
[6] = alpha-synuclein stem-loop luciferase translation blockers – H4 neuroglioma cells, luminescence, confirmation (AID 1988); format: functional, cell-based
[7] = biological target: T1, Heat shock factor protein 1 (Mus musculus, UniProt P38532); assay: decrease of HSF1-responsive luciferase luminescence – cell-based, NIH3T3, dose retest, confirmation (AID 2382); format: functional;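 also: NIH3T3 fibroblasts with HSF1-driven luciferase reporter stressed by proteasome inhibitor MG132; luminescence from HSF1-driven luciferase expression after 8 hours of MG132 stress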
T1 sequence (P38532 whole entry): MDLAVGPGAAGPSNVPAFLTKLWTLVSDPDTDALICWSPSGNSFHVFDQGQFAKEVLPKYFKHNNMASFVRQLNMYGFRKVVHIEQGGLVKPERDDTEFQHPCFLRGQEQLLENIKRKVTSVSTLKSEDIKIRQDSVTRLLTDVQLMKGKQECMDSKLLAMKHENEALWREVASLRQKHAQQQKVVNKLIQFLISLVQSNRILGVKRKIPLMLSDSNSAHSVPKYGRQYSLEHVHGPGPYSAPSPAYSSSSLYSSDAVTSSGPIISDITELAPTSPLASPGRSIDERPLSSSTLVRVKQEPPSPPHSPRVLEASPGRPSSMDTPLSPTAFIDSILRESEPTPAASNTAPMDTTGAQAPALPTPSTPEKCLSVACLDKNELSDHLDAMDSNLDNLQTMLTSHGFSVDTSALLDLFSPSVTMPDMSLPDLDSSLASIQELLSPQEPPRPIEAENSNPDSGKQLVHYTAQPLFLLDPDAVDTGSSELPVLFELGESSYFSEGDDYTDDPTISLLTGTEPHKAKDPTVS

[8] = cells; format: functional, cell-based
[9] = luciferase reporter signal suppression in cells – H4 neuroglioma cells, luminescence, dose response (AID 1990); format: functional, cell-based
[10] = blockade of melanocortin 4 receptor signaling – cell-based, plate reader, cherry pick, counter-screen for LGR2 antagonist project, dose response (AID 743444); format: functional;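 also: transfected HEK 293 cells stimulated with alpha-MSH peptide; potency of inhibitors of the alpha-MSH evoked signal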
[11] = alpha-synuclein stem-loop translation blockers – luminescence, H4 neuroglioblastoma cells, dose confirmation, confirmation (AID 2454); format: functional, cell-based;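 also: H4 neuroglioblastoma cells carrying an alpha-synuclein 5'UTR luciferase reporter; potency for inhibition of the luciferase signal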
[12] = toxicity toward HepG2 liver cells – cell-based, plate reader, cherry-pick, antagonist series, cytotoxicity control, dose response (AID 743416); format: functional
[13] = Luminescence Cell-Based Dose Response HTS to Identify Inhibitors of 5'UTR Stem-Loop Driven Prion Protein mRNA Translation in H4 Neuroglioblastoma Cells. [Related pubchem assays: 1827 (Project Summary), 1813 (Primary HTS)]; format: functional
[14] = luciferase reporter signal reduction – luminescence, H4-C neuroglioblastoma cells, dose response (AID 2458); format: functional, cell-based;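 also: H4 neuroglioblastoma cells stably carrying a luciferase reporter gene fusion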
[15] = test system: HT-1080; assay: HT1080 cell viability loss – fluorescence readout (AID 620); format: functional, cell-based; conditions: Homo sapiens
[16] = biological target: Luciferin 4-monooxygenase (Photinus pyralis, UniProt P08659); assay: Counter Screen for Luciferase-based Assay Positives. [Related pubchem assays: 620, 618, 411 ]
Chain of Luciferin 4-monooxygenase (P08659 whole entry): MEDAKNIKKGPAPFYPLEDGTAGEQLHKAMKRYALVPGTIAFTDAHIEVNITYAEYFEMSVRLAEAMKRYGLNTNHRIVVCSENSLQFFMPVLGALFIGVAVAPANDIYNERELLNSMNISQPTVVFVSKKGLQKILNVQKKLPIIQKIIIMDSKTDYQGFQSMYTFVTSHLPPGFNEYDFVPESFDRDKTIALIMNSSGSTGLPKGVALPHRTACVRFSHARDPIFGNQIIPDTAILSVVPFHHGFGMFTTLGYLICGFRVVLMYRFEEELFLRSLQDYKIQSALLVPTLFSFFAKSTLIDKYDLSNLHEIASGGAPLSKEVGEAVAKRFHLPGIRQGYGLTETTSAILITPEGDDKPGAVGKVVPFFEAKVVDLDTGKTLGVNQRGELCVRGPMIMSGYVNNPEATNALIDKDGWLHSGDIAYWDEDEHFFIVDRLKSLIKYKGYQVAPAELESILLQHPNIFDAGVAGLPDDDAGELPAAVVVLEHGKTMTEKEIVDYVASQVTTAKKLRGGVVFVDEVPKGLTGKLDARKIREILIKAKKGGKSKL

[17] = biological target: T2, Short transient receptor potential channel 4 (Mus musculus, UniProt Q9QUQ5); assay: calcium entry via TRPC4 opening agents – cell-based, HEK293 TRPC4/mu-opioid, Fluo-4 calcium, dose response (AID 434937); format: functional
T2 sequence (Q9QUQ5 whole entry): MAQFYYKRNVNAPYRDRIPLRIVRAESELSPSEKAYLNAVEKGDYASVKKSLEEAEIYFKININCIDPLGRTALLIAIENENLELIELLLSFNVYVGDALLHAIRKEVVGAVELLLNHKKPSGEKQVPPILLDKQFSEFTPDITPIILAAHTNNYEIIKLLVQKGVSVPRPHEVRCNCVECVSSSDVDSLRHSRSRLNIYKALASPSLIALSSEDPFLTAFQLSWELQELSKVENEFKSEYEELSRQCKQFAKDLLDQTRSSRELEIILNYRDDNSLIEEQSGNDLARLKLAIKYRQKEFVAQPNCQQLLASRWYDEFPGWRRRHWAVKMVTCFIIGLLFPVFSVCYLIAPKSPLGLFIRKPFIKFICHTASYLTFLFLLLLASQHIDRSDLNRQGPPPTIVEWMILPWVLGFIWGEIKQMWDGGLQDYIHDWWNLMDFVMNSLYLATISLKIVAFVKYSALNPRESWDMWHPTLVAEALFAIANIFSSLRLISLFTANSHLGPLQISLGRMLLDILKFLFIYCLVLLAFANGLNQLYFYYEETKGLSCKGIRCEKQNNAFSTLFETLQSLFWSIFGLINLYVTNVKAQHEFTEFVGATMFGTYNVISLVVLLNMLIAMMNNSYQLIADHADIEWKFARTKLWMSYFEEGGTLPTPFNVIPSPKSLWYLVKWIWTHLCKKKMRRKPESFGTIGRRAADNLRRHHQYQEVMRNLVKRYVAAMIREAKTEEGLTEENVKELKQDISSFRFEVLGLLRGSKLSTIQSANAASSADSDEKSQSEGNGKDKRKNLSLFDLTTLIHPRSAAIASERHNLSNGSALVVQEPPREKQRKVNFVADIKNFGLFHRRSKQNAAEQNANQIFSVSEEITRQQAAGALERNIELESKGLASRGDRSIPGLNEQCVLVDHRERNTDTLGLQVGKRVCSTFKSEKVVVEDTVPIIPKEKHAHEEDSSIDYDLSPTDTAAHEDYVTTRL

[18] = A cytotoxicity screen of small molecule inhibitors of the PhoP region in Salmonella typhi identified in the primary screen. [Related pubchem assays: 1850, 1864, 1985 ]; format: functional
[19] = biological target: T3, Hexokinase HKDC1 (Homo sapiens, UniProt Q2TB90); assay: inhibition of HKDC1 glucose phosphorylation – biochemical, W721R variant, dose response (AID 504729); format: functional
T3 sequence (Q2TB90 whole entry): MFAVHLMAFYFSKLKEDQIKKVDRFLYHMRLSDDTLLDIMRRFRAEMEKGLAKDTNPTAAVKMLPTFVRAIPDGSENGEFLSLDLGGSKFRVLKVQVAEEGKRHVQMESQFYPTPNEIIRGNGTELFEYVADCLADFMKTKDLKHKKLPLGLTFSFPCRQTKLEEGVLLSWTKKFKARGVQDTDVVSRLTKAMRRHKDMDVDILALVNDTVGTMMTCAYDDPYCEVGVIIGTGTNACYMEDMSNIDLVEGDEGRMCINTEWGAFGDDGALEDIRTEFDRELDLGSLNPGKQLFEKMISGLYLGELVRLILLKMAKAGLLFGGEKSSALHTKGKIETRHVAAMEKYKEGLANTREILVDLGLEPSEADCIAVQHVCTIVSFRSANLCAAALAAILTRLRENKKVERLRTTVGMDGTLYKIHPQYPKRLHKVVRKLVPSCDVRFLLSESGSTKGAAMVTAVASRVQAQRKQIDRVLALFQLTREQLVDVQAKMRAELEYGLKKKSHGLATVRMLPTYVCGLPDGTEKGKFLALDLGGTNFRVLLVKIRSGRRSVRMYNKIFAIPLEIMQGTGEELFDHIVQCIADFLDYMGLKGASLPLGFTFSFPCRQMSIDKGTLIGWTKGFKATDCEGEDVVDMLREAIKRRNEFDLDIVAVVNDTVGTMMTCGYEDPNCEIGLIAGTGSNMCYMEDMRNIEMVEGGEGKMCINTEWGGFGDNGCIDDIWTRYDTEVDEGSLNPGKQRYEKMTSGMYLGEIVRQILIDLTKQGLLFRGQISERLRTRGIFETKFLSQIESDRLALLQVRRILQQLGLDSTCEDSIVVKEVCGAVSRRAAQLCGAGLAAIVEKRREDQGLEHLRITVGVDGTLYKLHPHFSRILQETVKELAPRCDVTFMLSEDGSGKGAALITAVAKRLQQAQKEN

[20] = biological target: Beta-galactosidase (Escherichia coli, UniProt Q8VNN2); assay: detection-enzyme interference by beta-gal modulators – biochemical, E. coli enzyme, set 3, artefact control for CCR6 antagonist project, dose response (AID 504712); format: functional
Chain of Beta-galactosidase (Q8VNN2 whole entry): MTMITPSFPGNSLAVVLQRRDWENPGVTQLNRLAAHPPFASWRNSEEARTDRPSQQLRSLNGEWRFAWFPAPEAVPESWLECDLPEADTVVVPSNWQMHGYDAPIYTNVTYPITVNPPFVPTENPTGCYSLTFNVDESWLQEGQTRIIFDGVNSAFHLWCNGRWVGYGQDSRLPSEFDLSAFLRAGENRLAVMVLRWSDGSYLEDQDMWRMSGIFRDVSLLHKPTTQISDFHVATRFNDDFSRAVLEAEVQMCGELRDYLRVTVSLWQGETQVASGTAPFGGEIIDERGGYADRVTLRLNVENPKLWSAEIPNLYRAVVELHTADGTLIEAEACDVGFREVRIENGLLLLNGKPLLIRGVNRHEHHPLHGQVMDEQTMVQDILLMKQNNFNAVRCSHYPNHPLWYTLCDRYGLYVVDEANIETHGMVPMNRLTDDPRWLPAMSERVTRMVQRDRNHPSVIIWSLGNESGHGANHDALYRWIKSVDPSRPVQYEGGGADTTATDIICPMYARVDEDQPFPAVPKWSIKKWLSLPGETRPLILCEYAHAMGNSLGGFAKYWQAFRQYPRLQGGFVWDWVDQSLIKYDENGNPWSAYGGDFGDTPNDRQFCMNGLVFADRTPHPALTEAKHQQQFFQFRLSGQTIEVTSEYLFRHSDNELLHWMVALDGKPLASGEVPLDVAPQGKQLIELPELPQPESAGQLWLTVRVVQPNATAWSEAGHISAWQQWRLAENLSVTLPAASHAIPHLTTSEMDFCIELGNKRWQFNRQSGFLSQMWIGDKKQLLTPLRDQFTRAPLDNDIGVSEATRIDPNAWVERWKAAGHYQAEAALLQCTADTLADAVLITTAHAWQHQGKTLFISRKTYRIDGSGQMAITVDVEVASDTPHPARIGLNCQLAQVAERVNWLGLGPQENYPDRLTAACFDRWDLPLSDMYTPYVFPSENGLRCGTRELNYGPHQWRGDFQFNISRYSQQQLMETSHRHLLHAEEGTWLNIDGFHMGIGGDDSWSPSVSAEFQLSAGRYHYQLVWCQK

[21] = biological target: Cytochrome P450 2C9 (Homo sapiens, UniProt P11712)
Chain of Cytochrome P450 2C9 (P11712 whole entry): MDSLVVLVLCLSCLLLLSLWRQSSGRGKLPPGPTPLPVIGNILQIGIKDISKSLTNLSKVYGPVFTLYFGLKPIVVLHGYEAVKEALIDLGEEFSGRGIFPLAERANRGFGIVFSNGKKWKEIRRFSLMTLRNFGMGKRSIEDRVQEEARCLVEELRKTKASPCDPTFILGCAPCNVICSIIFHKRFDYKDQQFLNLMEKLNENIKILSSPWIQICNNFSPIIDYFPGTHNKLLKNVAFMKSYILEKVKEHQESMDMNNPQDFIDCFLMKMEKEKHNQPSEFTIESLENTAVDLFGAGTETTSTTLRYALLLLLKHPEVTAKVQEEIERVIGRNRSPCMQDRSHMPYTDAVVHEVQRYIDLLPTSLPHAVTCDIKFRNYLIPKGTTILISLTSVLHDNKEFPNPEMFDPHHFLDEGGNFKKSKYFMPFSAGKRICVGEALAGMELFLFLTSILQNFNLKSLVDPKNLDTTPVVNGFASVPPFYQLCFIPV

[22] = cells; format: functional
[23] = biological target: Cytochrome P450 2C19 (Homo sapiens, UniProt P33261); assay: Cytochrome panel assay with activity outcomes. Panel member name: p450-cyp2c19 Compounds with AC50 equal or less than 10 uM are considered active; format: functional; conditions: read-out: AC50
Chain of Cytochrome P450 2C19 (P33261 whole entry): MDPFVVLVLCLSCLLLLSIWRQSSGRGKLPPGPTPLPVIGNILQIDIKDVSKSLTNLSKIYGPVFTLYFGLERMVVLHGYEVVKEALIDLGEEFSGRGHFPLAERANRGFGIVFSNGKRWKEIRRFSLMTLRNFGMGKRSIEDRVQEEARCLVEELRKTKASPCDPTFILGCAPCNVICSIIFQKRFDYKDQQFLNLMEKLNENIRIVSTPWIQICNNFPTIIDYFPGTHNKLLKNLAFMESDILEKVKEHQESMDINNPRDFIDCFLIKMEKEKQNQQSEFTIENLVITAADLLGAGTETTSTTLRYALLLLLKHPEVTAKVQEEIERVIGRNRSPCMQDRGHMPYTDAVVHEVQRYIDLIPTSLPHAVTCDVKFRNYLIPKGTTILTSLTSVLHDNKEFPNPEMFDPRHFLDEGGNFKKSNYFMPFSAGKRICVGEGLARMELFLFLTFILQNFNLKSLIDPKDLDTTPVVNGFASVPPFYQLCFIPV

[24] = test system: HEK293; assay: Fluorescence-based counterscreen for potentiators or agonists of NPY-Y2: cell-based high-throughput dose response assay to identify inhibitors of cyclic nucleotide gated ion channel (CNGC) activity. In this assay, the parental HEK293 cell line transfected with a cyclic-nucleotide gated ion channel (CNGC)-based cAMP sensor is used to measure inhibition of isoproterenol-induced CNGC activity by test compound.; format: functional; conditions: Homo sapiens;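 also: stimulus is 1 µM isoproterenol at EC100 plus PDE inhibitor Ro 20-1724 at 25 µM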
[25] = biological target: T4, Neuropeptide Y receptor type 1 (Homo sapiens, UniProt P25929); assay: Fluorescence-based counterscreen for agonists of NPY-Y2: cell-based high-throughput dose response assay for agonists of NPY-Y1.; format: functional
T4 sequence (P25929 whole entry): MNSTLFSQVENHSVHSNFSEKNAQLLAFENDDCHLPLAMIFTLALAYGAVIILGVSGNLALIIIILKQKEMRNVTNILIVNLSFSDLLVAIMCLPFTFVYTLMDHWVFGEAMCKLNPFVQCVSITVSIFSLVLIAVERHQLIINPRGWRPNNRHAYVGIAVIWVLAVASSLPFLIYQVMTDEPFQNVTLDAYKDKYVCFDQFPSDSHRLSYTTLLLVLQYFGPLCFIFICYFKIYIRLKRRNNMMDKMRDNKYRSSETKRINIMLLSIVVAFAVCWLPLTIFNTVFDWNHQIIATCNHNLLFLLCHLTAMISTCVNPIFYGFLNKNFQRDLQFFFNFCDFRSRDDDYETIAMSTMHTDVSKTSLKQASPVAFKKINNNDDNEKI

[26] = biological target: T5, Neuropeptide Y receptor type 2 (Homo sapiens, UniProt P49146); assay: Fluorescence-based cell-based high-throughput dose response assay for agonists of NPY-Y2. [Related pubchem assays: 1703 (Screening assay (CNGC inhibitors).), 1359 (Screening assay (NPY-Y2 potentiators or agonists).), 1304 (Screening assay (NPY-Y1 potentiators or agonists).), 1710 (Screening assay (NPY-Y2 agonists).), 1791 (Summary AID.)]; format: functional
T5 sequence (P49146 whole entry): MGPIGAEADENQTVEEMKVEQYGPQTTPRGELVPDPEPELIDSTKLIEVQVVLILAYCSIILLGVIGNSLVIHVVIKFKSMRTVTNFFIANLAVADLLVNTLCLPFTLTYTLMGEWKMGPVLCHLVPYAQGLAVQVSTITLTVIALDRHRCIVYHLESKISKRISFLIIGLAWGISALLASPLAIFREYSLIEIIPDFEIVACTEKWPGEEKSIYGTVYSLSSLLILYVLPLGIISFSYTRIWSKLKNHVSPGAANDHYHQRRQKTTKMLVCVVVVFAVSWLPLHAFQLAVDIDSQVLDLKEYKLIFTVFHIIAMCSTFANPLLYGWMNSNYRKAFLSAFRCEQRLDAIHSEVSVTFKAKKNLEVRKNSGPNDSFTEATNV

## CCOc1ccc(CNC(=O)c2cc3oc4ccccc4c3n2C)cc1
[1]
  IC50: 4.82 µM (active)
[2]
  CC50: 39 µM (active)

## CCc1ccn2cc(-c3cc(-c4ccccc4)no3)nc2c1
[3]
  AC50: 0.805 µM (active)
[4]
  AC50: > 52 µM (inactive)
[5]
  IC50: > 39.8 µM (not active)
[6]
  EC50: 0.13 µM (active)
[7]
  EC50: < 0.16 µM (active)
[8]
  EC50: > 12 µM (inconclusive)
[9]
  EC50: 0.207 µM (active)
[10]
  AC50: 0.701 µM (active)
[11]
  EC50: 1.12 µM (active)
[12]
  AC50: 25.4 µM (active)
[13]
  EC50: < 0.1 µM (active)
[14]
  EC50: 1.2 µM (active)

## COc1cc(SC)ccc1C(=O)Nc1ccc2c(c1)OCCO2
[15]
  EC50: > 50 µM (not active)
[2]
  CC50: 19.9 µM (active)
[16]
  EC50: 75.4 µM (active)

## CN(CCOc1ccc(Cl)cc1)CC(O)c1ccccc1 (centres undefined)
[17]
  EC50: 1.88 µM (active)
[18]
  EC50: > 50 µM (active)

## O=C(CCn1c(=O)c2sccc2n(Cc2cc(=O)n3ccccc3n2)c1=O)NCc1ccco1
[1]
  IC50: 24.4 µM (active)

## COC(=O)c1ccc(CCc2cc(O)c(Br)cc2O)cc1
[19]
  IC50: 6.54 µM (active)
[20]
  IC50: > 66.6 µM (inactive)

## CC(=O)/C=C1\Nc2ccccc2OC1=O
[21]
  AC50: 2.24 µM (inconclusive)
[22]
  IC50: 5.75 µM (active)
[23]
  AC50: 7.94 µM (inconclusive)
[18]
  EC50: > 50 µM (active)

## OC1(c2ccc(OC(F)F)cc2)CS/C(=N\c2cccnc2)N1Cc1ccco1 (centres undefined)
[24]
  EC50: > 35.4 µM (not active)
[25]
  EC50: > 35.4 µM (not active)
[26]
  EC50: > 35.4 µM (not active)
